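Method: 48-hour compound exposure of cells in 96-well plates, five concentrations, linear interpolation of endpoints. At the GI50, growth is halved.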 Activity calls are given as the source filed them. No stated cut-off is given here; in the data, active = GI50 up to about 1.1 µM and inactive = higher.

Assay in all cases: NCI tumour cell line growth inhibition, 48 h
Assay [1] concerns A549.
For assay [2], the system named is ACHN.
Assay [3] has as its system EKVX.
Assay [4] has as its system HCT-116.
Assay [5] concerns K562.
In assay [6] the test system is KM12.
In assay [7] the test system is SF-268.
The test system of assay [8] is SK-MEL-28.
For assay [9], the system named is SN12C.
In assay [10] the test system is SNB-75.
Assay [11] relates to SW-620.
The test system of assay [12] is U-251.
Assay [13] concerns RXF 393.
Assay [14] concerns SR.
Assay [15] deals with HOP-92.

In the case of `COc1cc2c(cc1OC)C(C(=O)O)C(c1ccccc1)N(C)C2=O` (configuration not stated), the GI50 in assay [1], in [2], in assay [3], in assay [4], in assay [5] and in assay [6] was > 100 µM (inactive) throughout. The GI50 in assay [7], in [8], in assay [9], in assay [10], in assay [11] and in assay [12] was > 100 µM (inactive) each time.

In the case of `CC(CN(C)C)/C(=N\Nc1ccccc1)c1ccccc1` (configuration not stated), the GI50 is 0.44 µM (active) in assay [1]; 0.242 µM (active) in assay [2]; 1.3 µM (inactive) in assay [3]; 0.415 µM (active) in assay [4]; 0.112 µM (active) in assay [5]; 0.0826 µM (active) in assay [6]. Further, the GI50 in assay [13] was 11.4 µM (inactive); in [7], 0.22 µM (active); in assay [8], 2.02 µM (inactive); in [9], 3.19 µM (inactive); in [10], 13 µM (inactive); in assay [14], 0.33 µM (active). Besides, the values for the GI50 in assay [11] and in assay [12] were 0.142 µM (active) and 1.07 µM (active), respectively.

For the compound `Cc1cc(C)nc(NS(=O)(=O)c2ccc(NC(=O)c3cccc4c(N)c5ccccc5nc34)cc2)n1`, the GI50 is > 100 µM (inactive) in [1]; > 100 µM (inactive) in assay [2]; > 100 µM (inactive) in assay [3]; 90.6 µM (inactive) in [4]; 63.8 µM (inactive) in [5]; 40.6 µM (inactive) in [6]. The GI50 in assay [13], in assay [7], in assay [8], in [9], in assay [10] and in assay [11] was > 100 µM (inactive) each time. The GI50 in assay [12] is 97.5 µM (inactive).

`CCN(CC)CCOC(=O)/C(=C/c1ccc(OC)cc1)c1cc(OC)c(OC)c(OC)c1`: the GI50 in [1] is 5.56 µM (inactive); in assay [2], 7.67 µM (inactive); in assay [3], 31.5 µM (inactive); in [4] it was 5.45 µM (inactive); in assay [15], 3.27 µM (inactive); in assay [5], 3.29 µM (inactive). For the same compound, the GI50 in assay [6] is 3.77 µM (inactive); in assay [13], 2.15 µM (inactive); in [7], 5.45 µM (inactive); in assay [8] it was 6.08 µM (inactive); in assay [9], 16.1 µM (inactive); in assay [10], 0.91 µM (active). For the same compound, the GI50 in [11] was 4.18 µM (inactive); in assay [12], 4.06 µM (inactive).

Regarding `Cc1ccc([N+]2=NC(c3ccc([N+](=O)[O-])cc3)=NN(c3ccccc3)C2)cc1`, the GI50 is > 100 µM (inactive) in assay [1]; > 100 µM (inactive) in assay [2]; 43.7 µM (inactive) in [3]; 59.7 µM (inactive) in assay [4]; 20.3 µM (inactive) in assay [5]; 51.9 µM (inactive) in assay [13]. The GI50 is > 100 µM (inactive) in assay [7]; > 100 µM (inactive) in assay [8]; > 100 µM (inactive) in assay [9]; 46.7 µM (inactive) in assay [14]; > 100 µM (inactive) in assay [11]; 72.8 µM (inactive) in assay [12].

For `O=C1C=CC(=O)C2C1Cc1ccccc1C2c1ccccc1` (configuration not stated), the GI50 in assay [1] is 30.1 µM (inactive); in [2], 50.4 µM (inactive); in [3], 31.1 µM (inactive); in assay [4] it was 37.6 µM (inactive); in [15], 32 µM (inactive); in assay [5], 31.6 µM (inactive). The GI50 in [6] was 51.9 µM (inactive); in assay [7], 53.1 µM (inactive); in assay [8], 97.1 µM (inactive); in assay [9], 39.7 µM (inactive); in assay [10] it was 42.7 µM (inactive); in [14] it was 23.7 µM (inactive). In addition, the results for the GI50 in assay [11] and in assay [12] were 27.7 µM (inactive) and 18.2 µM (inactive), respectively.

Turning to `O=C(Nc1ccc(Cl)cc1Cl)C(=O)C(C(=O)c1ccc2ccccc2c1)C1OC(=O)c2ccccc21` (configuration not stated), the GI50 is 8.32 µM (inactive) in assay [1]; 15.8 µM (inactive) in assay [2]; 15.9 µM (inactive) in assay [3]; 5.56 µM (inactive) in assay [4]; 3.3 µM (inactive) in assay [15]; 15 µM (inactive) in [6]. Further, the GI50 in [13] is 2.16 µM (inactive); in assay [7] it was > 10 µM (inactive); in assay [8], 3.48 µM (inactive); in assay [9], 11.7 µM (inactive); in [11] it was 6.73 µM (inactive); in assay [12] it was 2.51 µM (inactive).

For the compound `CC(=O)OCC1OC(OCc2ccccc2)C(Br)C(OC(C)=O)C1OC(C)=O` (configuration not stated), the GI50 in [1], in assay [2], in assay [4], in [15], in assay [5] and in assay [6] was > 100 µM (inactive) each time. The GI50 in assay [13], in assay [7], in assay [8], in assay [9], in assay [14] and in assay [11] was > 100 µM (inactive) each time. For the same compound, the GI50 in assay [12] is > 100 µM (inactive).

As for `CC(=O)Nc1ccc2c(c1)C(=O)c1ccccc1-2`, the GI50 in [1], in [2], in assay [3], in assay [4], in [5] and in assay [6] was > 100 µM (inactive) in each case. Besides, the GI50 in assay [13], in assay [7], in [8], in assay [9], in assay [10] and in assay [14] was > 100 µM (inactive) throughout. Moreover, the GI50 in [11] and in [12] was > 100 µM (inactive) throughout.

Take `COc1cc([C@@H]2OC(=O)C3C2C(=O)O[C@H]3c2cc(OC)c(OC)c(OC)c2)cc(OC)c1OC` (some centres not stated): the GI50 in assay [1], in assay [2], in assay [3], in [4], in assay [15] and in assay [5] was > 100 µM (inactive) throughout. In addition, the GI50 in assay [6], in [13], in assay [7], in assay [8], in assay [9] and in assay [10] was > 100 µM (inactive) in each case. Moreover, the GI50 in assay [11] and in assay [12] was > 100 µM (inactive) in each case.

In the case of `CC1=C(C(=O)Nc2ccccc2C)C(c2ccc([N+](=O)[O-])cc2)C(C(=O)Nc2ccccc2C)=C(C)N1`, the GI50 was 22.5 µM (inactive) in assay [1]; 30.2 µM (inactive) in assay [2]; > 100 µM (inactive) in assay [3]; 40.1 µM (inactive) in assay [5]; 39.3 µM (inactive) in assay [6]; 16.4 µM (inactive) in assay [13]. Further, the GI50 is 39.1 µM (inactive) in assay [7]; 63.4 µM (inactive) in [8]; 76.7 µM (inactive) in assay [9]; 22.8 µM (inactive) in assay [10]; 93.3 µM (inactive) in assay [11]; > 100 µM (inactive) in [12].

`COc1ccc(S(=O)(=O)N/N=C\c2cc([N+](=O)[O-])cc(I)c2O)c(OC)c1OC`: the GI50 in [1] was 59 µM (inactive); in [2], 29.9 µM (inactive); in [3], 29.9 µM (inactive); in assay [15], 13.5 µM (inactive); in assay [5] it was 31.6 µM (inactive); in assay [6], 27.8 µM (inactive). Besides, the GI50 in assay [13] is 20.8 µM (inactive); in assay [7], 26.5 µM (inactive); in assay [8] it was 24.5 µM (inactive); in [9], 31.5 µM (inactive); in assay [10], 24.7 µM (inactive); in [11], 39.8 µM (inactive). Also, in [12], the GI50 was 25.3 µM (inactive).

For `CC(=O)CC(=O)CCCC(=O)Nc1ccc(Cl)cc1Cl`, the GI50 in assay [1], in assay [2], in assay [4], in assay [15], in assay [5] and in [6] was > 100 µM (inactive) in each case. Besides, the GI50 in assay [7], in assay [8], in [9], in assay [10], in assay [14] and in [11] was > 100 µM (inactive) each time.

As for `Cc1ccc(S(=O)(=O)CC(=O)CC(=O)C(=O)Nc2cccc(C(F)(F)F)c2)cc1`, the GI50 is > 100 µM (inactive) in [1]; > 100 µM (inactive) in [2]; > 100 µM (inactive) in [3]; 44.4 µM (inactive) in [4]; > 100 µM (inactive) in assay [15]; > 100 µM (inactive) in assay [5]. The GI50 was > 100 µM (inactive) in assay [6]; > 100 µM (inactive) in assay [7]; > 100 µM (inactive) in [8]; > 100 µM (inactive) in [9]; 47.6 µM (inactive) in [10]; > 100 µM (inactive) in [14]. Also, the GI50 in assay [11] and in assay [12] was > 100 µM (inactive) throughout.

Consider `O=C(Nc1ccc(Nc2ccc(NC(=O)c3ccccc3)c3c2C(=O)c2ccccc2C3=O)c2c1C(=O)c1ccccc1C2=O)c1ccccc1`, for which the GI50 in [1], in [2], in assay [3], in [4], in assay [5] and in assay [6] was > 100 µM (inactive) throughout. Moreover, the GI50 in assay [13] was > 100 µM (inactive); in [7], > 100 µM (inactive); in [8] it was > 100 µM (inactive); in [9], > 100 µM (inactive); in [10], 35.6 µM (inactive); in assay [14], > 100 µM (inactive). The GI50 in assay [11] and in assay [12] was > 100 µM (inactive) throughout.

Values taken from ChEMBL document CHEMBL1201862, “PubChem BioAssay data set” (2004).
